According to ChEMBL document CHEMBL3885881, “DrugMatrix”:

Organism: Rattus norvegicus
Experiment: DrugMatrix - Regimen: Daily Repeat
Type: toxicity, organism-based, Sprague-Dawley
Set-up: regimen Daily Repeat, gender Male, age 6-8 weeks
Conditions: in vivo, po, 0 mg/kg, route oral GAVAGE, dose level Control, vehicle 100 % WATER; for ABSOLUTE BASOPHIL / ABSOLUTE EOSINOPHIL / ABSOLUTE LYMPHOCYTE / ABSOLUTE MONOCYTE / ABSOLUTE SEGMENTED NEUTROPHIL / BASOPHIL / EOSINOPHIL / ERYTHROCYTE COUNT / HEMATOCRIT / HEMOGLOBIN / LEUKOCYTE COUNT / LYMPHOCYTE / MEAN CORPUSCULAR HEMOGLOBIN / MEAN CORPUSCULAR HEMOGLOBIN CONCENTRATION / MEAN CORPUSCULAR VOLUME / MONOCYTE / NEUTROPHIL / NUCLEATED RED BLOOD CELLS / PLATELET COUNT: tissue Blood; for ALANINE AMINOTRANSFERASE / ALBUMIN / ALKALINE PHOSPHATASE / ASPARTATE AMINOTRANSFERASE / BLOOD UREA NITROGEN / CARBON DIOXIDE / CHLORIDE / CHOLESTEROL / CREATINE PHOSPHOKINASE / CREATININE / GLUCOSE / LACTATE DEHYDROGENASE / LIPASE / PHOSPHORUS / POTASSIUM / SODIUM / TOTAL BILIRUBIN / TOTAL PROTEIN / URIC ACID: tissue Plasma

Which results are given for `Cc1cc(NS(=O)(=O)c2ccc(N)cc2)no1` [SULFAMETHOXAZOLE]?
ABSOLUTE BASOPHIL (72 h, time 3 day): 0 CELLS/uL; ABSOLUTE EOSINOPHIL (72 h, time 3 day): 102 CELLS/uL; ABSOLUTE LYMPHOCYTE (72 h, time 3 day): 12758 CELLS/uL; ABSOLUTE MONOCYTE (72 h, time 3 day): 197.17 CELLS/uL; ABSOLUTE SEGMENTED NEUTROPHIL (72 h, time 3 day): 1259.5 CELLS/uL; BASOPHIL (72 h, time 3 day): 0%; EOSINOPHIL (72 h, time 3 day): 0.83%; ERYTHROCYTE COUNT (72 h, time 3 day): 5.3 x10E6/uL; HEMATOCRIT (72 h, time 3 day): 33.47%; HEMOGLOBIN (72 h, time 3 day): 13.12 G/DL; LEUKOCYTE COUNT (72 h, time 3 day): 14.32 x10E3/uL; LYMPHOCYTE (72 h, time 3 day): 89.33%; MEAN CORPUSCULAR HEMOGLOBIN (72 h, time 3 day): 24.8 pg; MEAN CORPUSCULAR HEMOGLOBIN CONCENTRATION (72 h, time 3 day): 39.18 G/DL; MEAN CORPUSCULAR VOLUME (72 h, time 3 day): 63.25 fL; MONOCYTE (72 h, time 3 day): 1.33%; NEUTROPHIL (72 h, time 3 day): 8.5%; NUCLEATED RED BLOOD CELLS (72 h, time 3 day): 0 /100WBC; PLATELET COUNT (72 h, time 3 day): 1313.17 x10E3/uL; ALANINE AMINOTRANSFERASE (72 h, time 3 day): 52.67 u/L; ALBUMIN (72 h, time 3 day): 4.05 G/DL; ALKALINE PHOSPHATASE (72 h, time 3 day): 372 u/L; ASPARTATE AMINOTRANSFERASE (72 h, time 3 day): 82.83 u/L; BLOOD UREA NITROGEN (72 h, time 3 day): 15 mg/dL; CARBON DIOXIDE (72 h, time 3 day): 25.67 mmol/L; CHLORIDE (72 h, time 3 day): 102.17 MEQ/L; CHOLESTEROL (72 h, time 3 day): 68.83 mg/dL; CREATINE PHOSPHOKINASE (72 h, time 3 day): 285 u/L; CREATININE (72 h, time 3 day): 0.18 mg/dL; GLUCOSE (72 h, time 3 day): 149.17 mg/dL; LACTATE DEHYDROGENASE (72 h, time 3 day): 263.83 u/L; LIPASE (72 h, time 3 day): 10.17 u/L; PHOSPHORUS (72 h, time 3 day): 12.58 mg/dL; POTASSIUM (72 h, time 3 day): 6.58 MEQ/L; SODIUM (72 h, time 3 day): 144.22 MEQ/L; TOTAL BILIRUBIN (72 h, time 3 day): 0.22 mg/dL; TOTAL PROTEIN (72 h, time 3 day): 5.83 G/DL; URIC ACID (72 h, time 3 day): 1.58 mg/dL; ABSOLUTE BASOPHIL (120 h, time 5 day): 0 CELLS/uL; ABSOLUTE EOSINOPHIL (120 h, time 5 day): 24 CELLS/uL; ABSOLUTE LYMPHOCYTE (120 h, time 5 day): 11134.17 CELLS/uL; ABSOLUTE MONOCYTE (120 h, time 5 day): 56.33 CELLS/uL; ABSOLUTE SEGMENTED NEUTROPHIL (120 h, time 5 day): 1235.5 CELLS/uL; BASOPHIL (120 h, time 5 day): 0%; EOSINOPHIL (120 h, time 5 day): 0.17%; ERYTHROCYTE COUNT (120 h, time 5 day): 5.68 x10E6/uL; HEMATOCRIT (120 h, time 5 day): 35.72%; HEMOGLOBIN (120 h, time 5 day): 13.93 G/DL; LEUKOCYTE COUNT (120 h, time 5 day): 12.45 x10E3/uL; LYMPHOCYTE (120 h, time 5 day): 89.5%; MEAN CORPUSCULAR HEMOGLOBIN (120 h, time 5 day): 24.63 pg; MEAN CORPUSCULAR HEMOGLOBIN CONCENTRATION (120 h, time 5 day): 39.13 G/DL; MEAN CORPUSCULAR VOLUME (120 h, time 5 day): 62.97 fL; MONOCYTE (120 h, time 5 day): 0.5%; NEUTROPHIL (120 h, time 5 day): 9.83%; NUCLEATED RED BLOOD CELLS (120 h, time 5 day): 0 /100WBC; PLATELET COUNT (120 h, time 5 day): 1204 x10E3/uL; ALANINE AMINOTRANSFERASE (120 h, time 5 day): 59.5 u/L; ALBUMIN (120 h, time 5 day): 4.38 G/DL; ALKALINE PHOSPHATASE (120 h, time 5 day): 415.67 u/L; ASPARTATE AMINOTRANSFERASE (120 h, time 5 day): 91.33 u/L; BLOOD UREA NITROGEN (120 h, time 5 day): 17 mg/dL; CARBON DIOXIDE (120 h, time 5 day): 26.33 mmol/L; CHLORIDE (120 h, time 5 day): 104.17 MEQ/L; CHOLESTEROL (120 h, time 5 day): 77 mg/dL; CREATINE PHOSPHOKINASE (120 h, time 5 day): 249.67 u/L; CREATININE (120 h, time 5 day): 0.21 mg/dL; GLUCOSE (120 h, time 5 day): 148.33 mg/dL; LACTATE DEHYDROGENASE (120 h, time 5 day): 168.5 u/L; LIPASE (120 h, time 5 day): 10.17 u/L; PHOSPHORUS (120 h, time 5 day): 12.92 mg/dL; POTASSIUM (120 h, time 5 day): 7.09 MEQ/L; SODIUM (120 h, time 5 day): 148.37 MEQ/L; TOTAL BILIRUBIN (120 h, time 5 day): 0.23 mg/dL; TOTAL PROTEIN (120 h, time 5 day): 6.3 G/DL; URIC ACID (120 h, time 5 day): 1.77 mg/dL
